Data: PMC12578881, “Pan-cancer Myc modulator that targets Myc-α-tubulin interaction to drive selective mitotic catastrophe” (Scientific Reports, 2025)

Tests used:
[1] = molecular target: T1, c-Myc Micro-Tag (Myc-MicroTag) (Homo sapiens, UniProt P01106); test: Micro-Tag thermal-shift target engagement (enzyme complementation); assay type: biochemical
T1 construct: 15-residue Micro-Tag at C-terminus; transiently expressed in HEK293; Triton X-100 lysate

[2] = molecular target: T2, recombinant Myc protein (full length c-Myc) (Homo sapiens, UniProt P01106); test: competitive fluorescence polarization against 10074-G5; assay type: binding; settings: 10 µM Myc, 10 µM 10074-G5, DL78 20-60 µM, 30 min room temperature; site unproven, competitive or allosteric
T2 construct: full length recombinant protein, gift of A. Chinnaiyan
T2 sequence (P01106 whole entry): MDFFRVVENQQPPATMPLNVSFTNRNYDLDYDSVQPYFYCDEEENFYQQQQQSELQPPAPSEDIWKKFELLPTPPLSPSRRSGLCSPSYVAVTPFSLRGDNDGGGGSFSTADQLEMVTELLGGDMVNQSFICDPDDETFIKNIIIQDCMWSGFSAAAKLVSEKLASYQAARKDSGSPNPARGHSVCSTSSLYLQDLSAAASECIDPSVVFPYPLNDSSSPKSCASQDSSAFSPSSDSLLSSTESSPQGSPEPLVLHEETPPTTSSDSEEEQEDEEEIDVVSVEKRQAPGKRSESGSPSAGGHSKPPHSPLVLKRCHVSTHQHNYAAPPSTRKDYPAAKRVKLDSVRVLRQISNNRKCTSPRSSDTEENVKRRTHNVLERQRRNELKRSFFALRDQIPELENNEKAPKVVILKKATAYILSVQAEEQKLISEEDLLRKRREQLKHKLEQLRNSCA

T1 sequence (P01106 whole entry): as above

EC50 [1]: 1800 nM
SMILES: COc1ccc2oc(C(=O)c3c(C)oc4ccc(OC)cc34)cc2c1 [DL78, (5-methoxy-2-methylbenzofuran-3-yl)(5-methoxybenzofuran-2-yl)methanone]
competitive fluorescence polarization against 10074-G5 [2]: DL78 competed with 10074-G5 in a dose dependent manner
